US8293706B2, “Method for inhibiting release of hepatitis B virus from liver cells” (priority 2008, dated 2012)
Read-outs that look alike come from different tables or passages of the source.

Key:
HBV L180M = assay: HBVDR assay, strain L180M; type: cell-based
HBV WT = assay: HBVDR assay, strain WT; type: cell-based; conditions: assay type HBVDR
[1] = test system: 2.2.15 cells (HBV-infected human HepG2 hepatocellular carcinoma cells); assay: Neutral red dye uptake toxicity in 2.2.15 cells; type: cell-based; conditions: neutral red uptake (A510) 24 hours after last of 9 daily treatments
Description: (§1) The ability of sLDLR to inhibit pathogenic viruses was tested by the NIAID Antimicrobial Acquisition and Coordinating Facility (AACF). Confluent cultures of 2.2.15 cells (HBV-infected human HepG2 hepatocellular carcinoma cells (ATCC HB-8065), constitutively shedding HBV virions) were maintained on 96-well flat-bottomed tissue culture plates in RPMI1640 medium with 2% fetal bovine serum (Korba & Gerin, Antivir. Res. 19:55-70, 1992). Cultures (6 per each of 4 test concentrations on two replicate plates) were treated with 9 consecutive daily doses of sLDL compounds. Medium was changed daily with fresh test compounds. HBV virion DNA in the culture medium was assessed 24 hours after the last treatment by quantitative blot hybridization. Uptake of neutral red dye (absorbance of internalized dye at […] [A510]) wa used to determine the relative level of toxicity 24 hours following the last treatment (Korba & Gerin, Antivir. Res. 19:55-70, 1992). Values are presented as a percentage of the average A510 values for 9 separate cultures of untreated cells maintained on the same plate. Cultures for the toxicity analyses were seeded at the same time with the identical pool of stock cells used for the antiviral analyses and maintained in an identical manner. A total of 3 cultures were treated with each concentration of test compound. […] CC50, EC50, EC90, and S.I. (CC50/EC90) were calculated. […]

[2] = test system: lamivudine as well as adefovir dipovoxil resistant mutants (HBV); assay: HBVDR assay, panel of resistant mutants; type: cell-based; conditions: all tested resistant mutants
HBV LM/MV = assay: HBVDR assay, strain LM/MV; type: cell-based
HBV M204V = assay: HBVDR assay, strain M204V; type: cell-based
HBV M204I = assay: HBVDR assay, strain M204I; type: cell-based
HBV = assay: Inhibition of HBV release from 2.2.15 cells (HBV virion DNA in culture medium, quantitative blot hybridization); type: cell-based; conditions: for SI: S.I. (CC50/EC90)
Description: The ability of sLDLR to inhibit pathogenic viruses was tested by the NIAID Antimicrobial Acquisition and Coordinating Facility (AACF). Confluent cultures of 2.2.15 cells (HBV-infected human HepG2 hepatocellular carcinoma cells (ATCC HB-8065), constitutively shedding HBV virions) were maintained on 96-well flat-bottomed tissue culture plates in RPMI1640 medium with 2% fetal bovine serum (Korba & Gerin, Antivir. Res. 19:55-70, 1992). Cultures (6 per each of 4 test concentrations on two replicate plates) were treated with 9 consecutive daily doses of sLDL compounds. Medium was changed daily with fresh test compounds. HBV virion DNA in the culture medium was assessed 24 hours after the last treatment by quantitative blot hybridization. Uptake of neutral red dye (absorbance of internalized dye at […] [A510]) wa used to determine the relative level of toxicity 24 hours following the last treatment (Korba & Gerin, Antivir. Res. 19:55-70, 1992). Values are presented as a percentage of the average A510 values for 9 separate cultures of untreated cells maintained on the same plate. Cultures for the toxicity analyses were seeded at the same time with the identical pool of stock cells used for the antiviral analyses and maintained in an identical manner. A total of 3 cultures were treated with each concentration of test compound. […] CC50, EC50, EC90, and S.I. (CC50/EC90) were calculated. Lamivudine (3TC) was used as a positive assay control.

HBV N236T = assay: HBVDR assay, strain N236T; type: cell-based
[3] = Neutral red dye uptake toxicity in 2.2.15 cells; type: cell-based, human; conditions: human, neutral red uptake (A510) 24 hours after last of 9 daily treatments, positive assay control
Description: as §1

[4] = HBV strain L180M, assay type HBVDR, read-out: EC50
[5] = HBV strain L180M, assay type HBVDR, read-out: EC90
[6] = HBV strain LM/MV, assay type HBVDR, read-out: EC50
[7] = HBV strain LM/MV, assay type HBVDR, read-out: EC90
[8] = HBV strain M204V, assay type HBVDR, read-out: EC50
[9] = HBV strain M204V, assay type HBVDR, read-out: EC90
[10] = HBV strain M204I, assay type HBVDR, read-out: EC50
[11] = HBV strain M204I, assay type HBVDR, read-out: EC90
[12] = HBV virion DNA in culture medium 24 hours after last of 9 consecutive daily doses, 2.2.15 cells
[13] = HBV strain N236T, assay type HBVDR, read-out: EC50
[14] = HBV strain N236T, assay type HBVDR, read-out: EC90

Compound	EC50 (HBV L180M; [4]) [µM]	EC90 (HBV L180M; [5]) [µM]	EC50 (HBV WT) [µM]	EC90 (HBV WT) [µM]	EC50 (HBV LM/MV; [6]) [µM]	EC90 (HBV LM/MV; [7]) [µM]	EC50 (HBV M204V; [8]) [µM]	EC90 (HBV M204V; [9]) [µM]	EC50 (HBV M204I; [10]) [µM]	EC90 (HBV M204I; [11]) [µM]	EC50 (HBV N236T; [13]) [µM]	EC90 (HBV N236T; [14]) [µM]	also measured
sLDLR	0.8	6.3	0.9	6	1.2	7.5	1	6.5	1.1	8	1	8.2	CC50 [1]: >10 µg/mL; activity against lamivudine and adefovir dipovoxil resistant mutants [2]: active against all tested lamivudine as well as adefovir dipovoxil resistant mutants; inhibition of formation of HBV virion from virus-infected cells relative to toxicity (HBV; 2.2.15 cells): inhibited the formation of HBV virion from virus-infected cells at concentrations far below toxicity; EC50 (HBV; [12]): 0.131 µg/mL; EC90 (HBV; [12]): 0.922 µg/mL; SI (HBV; sLDLR columns): >11
Nc1ccn([C@@H]2CS[C@H](CO)O2)c(=O)n1 [Lamivudine]	–	–	–	–	–	–	–	–	–	–	–	–	EC50 (HBV L180M; Hepatitis B virus): 5.2 µM; EC90 (HBV L180M; Hepatitis B virus): 20 µM; EC50 (HBV WT; Hepatitis B virus): 0.2 µM; EC90 (HBV WT; Hepatitis B virus): 0.7 µM; CC50 [3]: 2310 µM; EC50 (HBV LM/MV; Hepatitis B virus): > 100 µM; EC90 (HBV LM/MV; Hepatitis B virus): > 100 µM; EC50 (HBV M204V; Hepatitis B virus): > 100 µM; EC90 (HBV M204V; Hepatitis B virus): > 100 µM; EC50 (HBV M204I; Hepatitis B virus): > 100 µM; EC90 (HBV M204I; Hepatitis B virus): > 100 µM; EC50 (HBV; Hepatitis B virus, 24 h): 0.045 µM; EC90 (HBV; Hepatitis B virus, 24 h): 0.146 µM; SI (HBV; Lamivudine columns): 15178; EC50 (HBV N236T; Hepatitis B virus): 0.2 µM; EC90 (HBV N236T; Hepatitis B virus): 0.6 µM
CC(C)(C)C(=O)OCOP(=O)(COCCn1cnc2c(N)ncnc21)OCOC(=O)C(C)(C)C [ADV, Adefovir Dipovoxil]	1.9	8.5	1.5	6.5	1.3	7.8	1.8	7	1.3	7.2	8.1	32	–
